Values after ≈ are worked out from the molar mass of the structure shown. Read-outs that look alike come from different tables or passages of the source. Positions of bridges follow the written chain, without caps; N, C: chain ends. Non-standard residues stand in square brackets, D forms with d. Residues, ends and D or L forms follow the SMILES beside them. *: point of attachment. Benzoyl(4-Ph) = O=C(c1ccc(-c2ccccc2)cc1)*; Phenylacetyl(3-Cl) = O=C(Cc1cccc(Cl)c1)*; Decanoyl = CCCCCCCCCC(=O)*; Nonanoyl = CCCCCCCCC(=O)*; Dab = NCC[C@H](N)C(=O)O; Abu = CC[C@H](N)C(=O)O; Dap = NC[C@H](N)C(=O)O; Hexanoyl = CCCCCC(=O)*; PhAc = O=C(Cc1ccccc1)*
Tests used:
[1] = system: Acinetobacter baumannii
How it was run: (§1)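 Broth microdilution MICs following CLSI standards in cation-adjusted Mueller-Hinton broth. Lipopeptides tested as TFA salts; polymyxin B sulphate served as control.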

[2] = system: Enterobacter cloacae
How it was run: as §1

[3] = system: Klebsiella pneumoniae
How it was run: as §1

[4] = system: Pseudomonas aeruginosa
How it was run: as §1

[5] = system: P. aeruginosa ATCC 27853; experiment: In vivo efficacy in mouse blood infection model (neutropenic Swiss mice); conditions: compound, free base 4 mg/kg intravenously 2 h after inoculation, blood at 4 h
Description: P. aeruginosa ATCC 27853, A. baumannii ATCC 19606 and K. pneumoniae FADDI-KP032 were subcultured on nutrient agar plates. One colony of each bacterial strain was dispersed in 10-mL CAMHB and incubated overnight. On day 2, an aliquot (0.2 mL) of each overnight culture suspension was dispersed in 20-mL CAMHB and incubated for 1.5-2.5 h for production of early log-phase growth bacterial culture. The bacteria in the early log-phase growth suspension were concentrated by centrifugation (3,220 g for 10 min) and re-suspended in sterile 0.9% saline for inoculation into mice. The bacterial cell concentration (colony forming unit [CFU]/mL) in saline was estimated by determining the optical density (OD) of the suspension at 600 nm, and confirmed by plating the suspension on nutrient agar plates. Swiss mice (22 to 28 g) were rendered neutropenic by injecting two doses of cyclophosphamide intraperitoneally, −4 day (150 mg/kg) and −1 day (100 mg/kg) prior to inoculation. Bloodstream infection was established by injecting intravenously 50 μL of early log-phase bacterial suspension (10^8-10^9 CFU/mL). The exact injection volume for each bacterial suspension was calculated based upon the OD value of the bacterial suspension and the desired inoculum for each isolate.
Solutions for administration of colistin, polymyxin B or the compounds were prepared at a concentration of 1 mg (free base) per mL in sterile 0.9% saline. At 2 h after inoculation, a mouse in the treatment groups was injected intravenously with one of the above solutions at 4 μL/g body weight (BW) (i.e. free base 4 mg/kg BW), while the same volume of saline was injected into the control mice. At 0 h or at 4 h after the administration of antibacterial drug or saline (control), animals were euthanised by inhalation of overdose isoflurane. The skin on the chest and fore-paws of each animal was thoroughly cleansed with 70% ethanol and Betadine®. The blood was collected via cardiac puncture using a 1-mL syringe rinsed with heparin (5,000 IU/mL), diluted serially in sterile 0.9% saline and plated on nutrient agar plates using a spiral plater.
The agar plates were incubated at 37° C. overnight. The bacterial colonies on the plate were counted and CFU/mL of the blood was calculated. The log10 CFU/mL of blood in each mouse was calculated. The in vivo activity of the compounds against the bacteria was calculated as the difference of the log10 CFU/mL values between the treated mice and the control mice at 4 h (Δ log=log10 (treated)CFU/mL−log10 (control)CFU/mL).
Any compound showing a decrease in bacterial loading (Δ log) of ≥2 at 4 h is considered to have good in vivo efficacy in this initial screening model.

[6] = Acinetobacter baumannii ATCC 17978, broth microdilution in CAMHB
[7] = Acinetobacter baumannii ATCC 19606, broth microdilution in CAMHB
[8] = Acinetobacter baumannii FADDI-AB034, broth microdilution in CAMHB
[9] = Enterobacter cloacae FADDI-EC001, broth microdilution in CAMHB
[10] = Enterobacter cloacae FADDI-EC003, broth microdilution in CAMHB
[11] = Enterobacter cloacae FADDI-EC006, broth microdilution in CAMHB
[12] = Pseudomonas aeruginosa ATCC 27853, broth microdilution in CAMHB
[13] = Pseudomonas aeruginosa FADDI-PA022, broth microdilution in CAMHB
[14] = Pseudomonas aeruginosa FADDI-PA025, broth microdilution in CAMHB

Row | SMILES | MIC [1] [µg/mL] | Minimum inhibitory concentration, Ab A ATCC 17978 [1] [µg/mL] | Minimum inhibitory concentration, Ab ATCC 19606 [1] [µg/mL] | Minimum inhibitory concentration, Ab FADDI-AB034 [1] [µg/mL] | Minimum inhibitory concentration, Ec FADDI-EC001 [2] [µg/mL] | Minimum inhibitory concentration, Ec FADDI-EC003 [2] [µg/mL] | Minimum inhibitory concentration, Ec FADDI-EC006 [2] [µg/mL] | MIC [3] [µg/mL] | MIC [4] [µg/mL] | Minimum inhibitory concentration, Pa ATCC 27853 [4] [µg/mL] | Minimum inhibitory concentration, Pa FADDI-PA022 [4] [µg/mL] | Minimum inhibitory concentration, Pa FADDI-PA025 [4] [µg/mL] | Δ log (Treated-Control at 4 h) [5] [log10 CFU/mL] | MIC ([1]; A. baumannii ATCC 19606) [µg/mL] | Minimum inhibitory concentration, Ab A ATCC 17978 [1, 6] [µg/mL] | Minimum inhibitory concentration, Ab ATCC 19606 [1, 7] [µg/mL] | Minimum inhibitory concentration, Ab FADDI-AB034 [1, 8] [µg/mL] | Minimum inhibitory concentration, Ec FADDI-EC001 [2, 9] [µg/mL] | Minimum inhibitory concentration, Ec FADDI-EC003 [2, 10] [µg/mL] | Minimum inhibitory concentration, Ec FADDI-EC006 [2, 11] [µg/mL] | also measured
1 | CCCCCC(=O)N[C@@H](CCN)C(=O)N[C@H](C(=O)N[C@@H](CCN)C(=O)N[C@H]1CCNC(=O)[C@H]([C@@H](C)O)NC(=O)[C@H](CCN)NC(=O)[C@H](CCN)NC(=O)[C@H]([C@@H](C)O)NC(=O)[C@@H](CC(C)C)NC(=O)[C@H](CCN)NC1=O)[C@@H](C)O [Compound 26] (Hexanoyl-[Dab]T[Dab][Dab][Dab][dL]T[Dab][Dab]T; lactam 4-C) | 16 (≈ 14.3 µM) | 8 (≈ 7.17 µM) | 16 (≈ 14.3 µM) | 16 (≈ 14.3 µM) | 0.5 (≈ 0.448 µM) | 0.5 (≈ 0.448 µM) | 1 (≈ 0.897 µM) | 2 (≈ 1.79 µM) | 0.5 (≈ 0.448 µM) | 0.5 (≈ 0.448 µM) | 2 (≈ 1.79 µM) | >32 | −0.04 | – | – | – | – | – | – | – | –
2 | CCCCCCCCCC(=O)N[C@@H](CCN)C(=O)N[C@H](C(=O)N[C@@H](CCN)C(=O)N[C@H]1CCNC(=O)[C@H]([C@@H](C)O)NC(=O)[C@H](CCN)NC(=O)[C@H](CCN)NC(=O)[C@H]([C@@H](C)O)NC(=O)[C@@H](CC(C)C)NC(=O)[C@H](CCN)NC1=O)[C@@H](C)O [Compound 27] (Decanoyl-[Dab]T[Dab][Dab][Dab][dL]T[Dab][Dab]T; lactam 4-C) | 1 (≈ 0.854 µM) | 1 (≈ 0.854 µM) | 1 (≈ 0.854 µM) | 1 (≈ 0.854 µM) | <0.125 | <0.125 | 0.25 (≈ 0.213 µM) | 0.5 (≈ 0.427 µM) | 1 (≈ 0.854 µM) | 1 (≈ 0.854 µM) | 1 (≈ 0.854 µM) | 16 (≈ 13.7 µM) | −3.67 | – | – | – | – | – | – | – | –
3 | CC(C)C[C@H]1NC(=O)[C@H](CCN)NC(=O)[C@@H](NC(=O)[C@H](CCN)NC(=O)[C@@H](NC(=O)[C@H](CCN)NC(=O)c2ccc(-c3ccccc3)cc2)[C@@H](C)O)CCNC(=O)[C@H]([C@@H](C)O)NC(=O)[C@H](CCN)NC(=O)[C@H](CCN)NC(=O)[C@H]([C@@H](C)O)NC1=O [Compound 29] ({Benzoyl(4-Ph)}-[Dab]T[Dab][Dab][Dab][dL]T[Dab][Dab]T; lactam 4-C) | – | – | – | – | – | – | – | – | – | – | – | – | −2.80 | 8 (≈ 6.68 µM) | 2 (≈ 1.67 µM) | 8 (≈ 6.68 µM) | 4 (≈ 3.34 µM) | 0.5 (≈ 0.418 µM) | 1 (≈ 0.835 µM) | 0.5 (≈ 0.418 µM) | MIC ([3]; K. pneumoniae FADDI-KP032): 1 µg/mL (≈ 0.835 µM); MIC ([4]; P. aeruginosa ATCC 27853): 1 µg/mL (≈ 0.835 µM); Minimum inhibitory concentration, Pa ATCC 27853 [4, 12]: 1 µg/mL (≈ 0.835 µM); Minimum inhibitory concentration, Pa FADDI-PA022 [4, 13]: 4 µg/mL (≈ 3.34 µM); Minimum inhibitory concentration, Pa FADDI-PA025 [4, 14]: 32 µg/mL (≈ 26.7 µM)
4 | CC(C)C[C@H]1NC(=O)[C@H](CCN)NC(=O)[C@@H](NC(=O)[C@H](CCN)NC(=O)[C@@H](NC(=O)[C@H](CCN)NC(=O)Cc2ccccc2)[C@@H](C)O)CCNC(=O)[C@H]([C@@H](C)O)NC(=O)[C@H](CCN)NC(=O)[C@H](CCN)NC(=O)[C@H]([C@@H](C)O)NC1=O [Compound 30] (PhAc-[Dab]T[Dab][Dab][Dab][dL]T[Dab][Dab]T; lactam 4-C) | – | – | – | – | – | – | – | – | – | – | – | – | −0.39 | 32 (≈ 28.2 µM) | 32 (≈ 28.2 µM) | 32 (≈ 28.2 µM) | 32 (≈ 28.2 µM) | 2 (≈ 1.76 µM) | 2 (≈ 1.76 µM) | 4 (≈ 3.52 µM) | MIC ([3]; K. pneumoniae FADDI-KP032): 1 µg/mL (≈ 0.881 µM); MIC ([4]; P. aeruginosa ATCC 27853): 1 µg/mL (≈ 0.881 µM); Minimum inhibitory concentration, Pa ATCC 27853 [4, 12]: 1 µg/mL (≈ 0.881 µM); Minimum inhibitory concentration, Pa FADDI-PA022 [4, 13]: 1 µg/mL (≈ 0.881 µM); Minimum inhibitory concentration, Pa FADDI-PA025 [4, 14]: >32 µg/mL
5 | CCCCCCCCC(=O)N[C@@H](CCN)C(=O)N[C@H](C(=O)N[C@@H](CN)C(=O)N[C@H]1CCNC(=O)[C@H]([C@@H](C)O)NC(=O)[C@H](CCN)NC(=O)[C@H](CCN)NC(=O)[C@H](CC)NC(=O)[C@@H](CC(C)C)NC(=O)[C@H](CCN)NC1=O)[C@@H](C)O [Compound 59] (Nonanoyl-[Dab]T[Dap][Dab][Dab][dL][Abu][Dab][Dab]T; lactam 4-C) | 2 (≈ 1.77 µM) | 1 (≈ 0.887 µM) | 2 (≈ 1.77 µM) | 0.5 (≈ 0.443 µM) | 1 (≈ 0.887 µM) | 1 (≈ 0.887 µM) | 0.5 (≈ 0.443 µM) | <0.125 | 1 (≈ 0.887 µM) | 1 (≈ 0.887 µM) | 2 (≈ 1.77 µM) | 2 (≈ 1.77 µM) | −2.82 | – | – | – | – | – | – | – | –
6 | CC(C)C[C@H]1NC(=O)[C@H](CCN)NC(=O)[C@@H](NC(=O)[C@H](CN)NC(=O)[C@@H](NC(=O)[C@H](CCN)NC(=O)Cc2cccc(Cl)c2)[C@@H](C)O)CCNC(=O)[C@H]([C@@H](C)O)NC(=O)[C@H](CCN)NC(=O)[C@H](CCN)NC(=O)[C@H]([C@@H](C)O)NC1=O [Compound 61] ({Phenylacetyl(3-Cl)}-[Dab]T[Dap][Dab][Dab][dL]T[Dab][Dab]T; lactam 4-C) | – | – | – | – | – | – | – | – | – | – | – | – | −4.75 | 4 (≈ 3.46 µM) | 2 (≈ 1.73 µM) | 4 (≈ 3.46 µM) | 1 (≈ 0.865 µM) | 0.25 (≈ 0.216 µM) | 0.25 (≈ 0.216 µM) | 0.25 (≈ 0.216 µM) | MIC ([3]; K. pneumoniae FADDI-KP032): 0.25 µg/mL (≈ 0.216 µM); MIC ([4]; P. aeruginosa ATCC 27853): 0.5 µg/mL (≈ 0.433 µM); Minimum inhibitory concentration, Pa ATCC 27853 [4, 12]: 0.5 µg/mL (≈ 0.433 µM); Minimum inhibitory concentration, Pa FADDI-PA022 [4, 13]: 0.5 µg/mL (≈ 0.433 µM); Minimum inhibitory concentration, Pa FADDI-PA025 [4, 14]: >32 µg/mL
